Measurements published in PubChem BioAssay (NCI).
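Method: 48-hour compound exposure of cells in 96-well plates, five concentrations, linear interpolation of endpoints. GI50 marks 50% less growth. TGI: concentration producing complete growth inhibition.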

What was measured:
Experiment in all cases: DTP human tumour cell line panel, 48 h
MCF7 breast = tested on: MCF7 breast
TK-10 renal = tested on: TK-10 renal
NCI-H460 lung = tested on: NCI-H460 lung
HCT-15 colon = tested on: HCT-15 colon
DU-145 prostate = tested on: DU-145 prostate
PC-3 prostate = tested on: PC-3 prostate
786-0 renal = tested on: 786-0 renal
CAKI-1 renal = tested on: CAKI-1 renal
HCT-116 colon = tested on: HCT-116 colon
HT29 colon = tested on: HT29 colon
U251 CNS = tested on: U251 CNS
CCRF-CEM leukemia = tested on: CCRF-CEM leukemia
M14 melanoma = tested on: M14 melanoma
ACHN renal = tested on: ACHN renal
MOLT-4 leukemia = tested on: MOLT-4 leukemia
UACC-257 melanoma = tested on: UACC-257 melanoma
SF-539 CNS = tested on: SF-539 CNS
SK-MEL-5 melanoma = tested on: SK-MEL-5 melanoma
LOX IMVI melanoma = tested on: LOX IMVI melanoma
A549 NSCLC = tested on: A549 NSCLC
HL-60(TB) leukemia = tested on: HL-60(TB) leukemia
OVCAR-4 ovarian = tested on: OVCAR-4 ovarian
MDA-MB-231 breast = tested on: MDA-MB-231 breast
T-47D breast = tested on: T-47D breast
IGROV1 ovarian = tested on: IGROV1 ovarian
HS 578T breast = tested on: HS 578T breast
SF-295 CNS = tested on: SF-295 CNS
MDA-MB-435 = tested on: MDA-MB-435
OVCAR-3 ovarian = tested on: OVCAR-3 ovarian
MALME-3M melanoma = tested on: MALME-3M melanoma
KM12 colon = tested on: KM12 colon
NCI/ADR-RES ovarian = tested on: NCI/ADR-RES ovarian
SNB-75 CNS = tested on: SNB-75 CNS
NCI-H522 lung = tested on: NCI-H522 lung
HOP-92 NSCLC = tested on: HOP-92 NSCLC
UO-31 renal = tested on: UO-31 renal
RPMI-8226 leukemia = tested on: RPMI-8226 leukemia
OVCAR-5 ovarian = tested on: OVCAR-5 ovarian
SK-MEL-2 melanoma = tested on: SK-MEL-2 melanoma
UACC-62 melanoma = tested on: UACC-62 melanoma
SN12C renal = tested on: SN12C renal
SNB-19 CNS = tested on: SNB-19 CNS
A498 renal = tested on: A498 renal
SR leukemia = tested on: SR leukemia
RXF 393 renal = tested on: RXF 393 renal
SF-268 CNS = tested on: SF-268 CNS
BT-549 breast = tested on: BT-549 breast
SK-MEL-28 melanoma = tested on: SK-MEL-28 melanoma
COLO 205 colon = tested on: COLO 205 colon
HCC-2998 colon = tested on: HCC-2998 colon
SW-620 colon = tested on: SW-620 colon
OVCAR-8 ovarian = tested on: OVCAR-8 ovarian
SK-OV-3 ovarian = tested on: SK-OV-3 ovarian
NCI-H226 lung = tested on: NCI-H226 lung
EKVX NSCLC = tested on: EKVX NSCLC
HOP-62 NSCLC = tested on: HOP-62 NSCLC

In the case of COc1cc2c3c(n(CCCNCC4CC4)c(=O)c2cc1OC)-c1cc2c(cc1C3=O)OCO2, the GI50 (MCF7 breast) is reported as 95.3 nM, the TGI (MCF7 breast) is reported as 1690 nM and the GI50 (TK-10 renal) is reported as 15.6 µM. For the same molecule, the TGI (TK-10 renal) was 29.2 µM, the GI50 (NCI-H460 lung) was 243 nM and the TGI (NCI-H460 lung) was 1460 nM. It also gave a GI50 (HCT-15 colon) of 1250 nM, a TGI (HCT-15 colon) of 2800 nM and a GI50 (DU-145 prostate) of 759 nM. It also gave a TGI (DU-145 prostate) of 2110 nM, a GI50 (PC-3 prostate) of 1210 nM and a TGI (PC-3 prostate) of 2840 nM. For the same molecule, the GI50 (786-0 renal) was 1440 nM, the TGI (786-0 renal) was 2810 nM and the GI50 (CAKI-1 renal) was 990 nM. It also gave a TGI (CAKI-1 renal) of 2150 nM, a GI50 (HCT-116 colon) of 1140 nM and a TGI (HCT-116 colon) of 2540 nM. It also gave a GI50 (HT29 colon) of 1060 nM, a TGI (HT29 colon) of 2320 nM and a GI50 (U251 CNS) of 473 nM. For the same molecule, the TGI (U251 CNS) was 1890 nM, the GI50 (CCRF-CEM leukemia) was 82 nM and the TGI (CCRF-CEM leukemia) was 2700 nM. For the same molecule, the GI50 (M14 melanoma) was 1090 nM, the TGI (M14 melanoma) was 2380 nM and the GI50 (ACHN renal) was 439 nM. The TGI (ACHN renal) was 1570 nM, the GI50 (MOLT-4 leukemia) was 38.5 nM and the TGI (MOLT-4 leukemia) was 1540 nM. It also gave a GI50 (UACC-257 melanoma) of 13.6 µM, a TGI (UACC-257 melanoma) of 26.7 µM and a GI50 (SF-539 CNS) of 763 nM. It also gave a TGI (SF-539 CNS) of 2080 nM, a GI50 (SK-MEL-5 melanoma) of 10.1 µM and a TGI (SK-MEL-5 melanoma) of 21.8 µM. For the same molecule, the GI50 (LOX IMVI melanoma) was 349 nM, the TGI (LOX IMVI melanoma) was 1890 nM and the GI50 (A549 NSCLC) was 1220 nM. It also gave a TGI (A549 NSCLC) of 2570 nM, a GI50 (HL-60(TB) leukemia) of 1470 nM and a TGI (HL-60(TB) leukemia) of 3.25 µM. For the same molecule, the GI50 (OVCAR-4 ovarian) was 1730 nM, the TGI (OVCAR-4 ovarian) was 3.35 µM and the GI50 (MDA-MB-231 breast) was 1440 nM. For the same molecule, the TGI (MDA-MB-231 breast) was 3.11 µM, the GI50 (T-47D breast) was 7.13 µM and the TGI (T-47D breast) was 25.7 µM. For the same molecule, the GI50 (IGROV1 ovarian) was 1160 nM, the TGI (IGROV1 ovarian) was 2750 nM and the GI50 (HS 578T breast) was 18.8 µM. It also gave a TGI (HS 578T breast) of 59.6 µM, a GI50 (SF-295 CNS) of 307 nM and a TGI (SF-295 CNS) of 1530 nM. The GI50 (MDA-MB-435) was 1290 nM, the TGI (MDA-MB-435) was 2570 nM and the GI50 (OVCAR-3 ovarian) was 1420 nM. The TGI (OVCAR-3 ovarian) was 2840 nM, the GI50 (MALME-3M melanoma) was 1490 nM and the TGI (MALME-3M melanoma) was 2970 nM. It also gave a GI50 (KM12 colon) of 1370 nM, a TGI (KM12 colon) of 3.12 µM and a GI50 (NCI/ADR-RES ovarian) of 1070 nM. For the same molecule, the TGI (NCI/ADR-RES ovarian) was 2890 nM, the GI50 (SNB-75 CNS) was 1740 nM and the TGI (SNB-75 CNS) was 19.6 µM. The GI50 (NCI-H522 lung) was 492 nM, the TGI (NCI-H522 lung) was 2100 nM and the GI50 (HOP-92 NSCLC) was 9.32 µM. The TGI (HOP-92 NSCLC) was 21.9 µM, the GI50 (UO-31 renal) was 1410 nM and the TGI (UO-31 renal) was 2790 nM. It also gave a GI50 (RPMI-8226 leukemia) of 636 nM, a TGI (RPMI-8226 leukemia) of 3.31 µM and a GI50 (OVCAR-5 ovarian) of 1740 nM. It also gave a TGI (OVCAR-5 ovarian) of 3.29 µM, a GI50 (SK-MEL-2 melanoma) of 20.8 µM and a TGI (SK-MEL-2 melanoma) of 35.2 µM. For the same molecule, the GI50 (UACC-62 melanoma) was 2860 nM, the TGI (UACC-62 melanoma) was 21.1 µM and the GI50 (SN12C renal) was 1370 nM. For the same molecule, the TGI (SN12C renal) was 3.23 µM, the GI50 (SNB-19 CNS) was 781 nM and the TGI (SNB-19 CNS) was 2470 nM. The GI50 (A498 renal) was 12.6 µM, the TGI (A498 renal) was 25.4 µM and the GI50 (SR leukemia) was 70.8 nM. The TGI (SR leukemia) was 1230 nM, the GI50 (RXF 393 renal) was 1490 nM and the TGI (RXF 393 renal) was 2830 nM. For the same molecule, the GI50 (SF-268 CNS) was 764 nM, the TGI (SF-268 CNS) was 2490 nM and the GI50 (BT-549 breast) was 12.7 µM. The TGI (BT-549 breast) was 26.7 µM, the GI50 (SK-MEL-28 melanoma) was 14.8 µM and the TGI (SK-MEL-28 melanoma) was 28.8 µM. For the same molecule, the GI50 (COLO 205 colon) was 1110 nM, the TGI (COLO 205 colon) was 4.21 µM and the GI50 (HCC-2998 colon) was 1240 nM. It also gave a TGI (HCC-2998 colon) of 2550 nM, a GI50 (SW-620 colon) of 573 nM and a TGI (SW-620 colon) of 2190 nM. It also gave a GI50 (OVCAR-8 ovarian) of 1110 nM, a TGI (OVCAR-8 ovarian) of 2660 nM and a GI50 (SK-OV-3 ovarian) of 1050 nM. It also gave a TGI (SK-OV-3 ovarian) of 7.63 µM, a GI50 (NCI-H226 lung) of 10.7 µM and a TGI (NCI-H226 lung) of 28.7 µM. It also gave a GI50 (EKVX NSCLC) of 1780 nM, a TGI (EKVX NSCLC) of 3.48 µM and a GI50 (HOP-62 NSCLC) of 354 nM. For the same molecule, the TGI (HOP-62 NSCLC) was 1600 nM.
